US20150315179A1, “COMPOUNDS AND METHODS OF TREATING NEUROLOGICAL DISORDERS” (Torrey Pines Institute For Molecular Studies, priority 2014, published 2015)

Experiments:
[1] = test system: sAPPα release, NT2 cells stably expressing human APP751; test: sAPPα ELISA, NT2 cells expressing APP751; format: cell-based; conditions: 24 h
Description: (§1) (5). To confirm the effect of THPI-244 on sAPPα levels in a neuronal cell line and by a tertiary assay, we exposed human Neuron-committed Teratocarcinoma cell line (NT2) stably expressing human APP751 to different concentrations of THPI-244 for 24 h and compared with that of Bryostatin, a classical activator of PKC known to stimulate sAPPα release. […] Levels of sAPPα were measured by ELISA using commercially available kit (cat #27734, IBL-America, Minneapolis, Minn., USA). […] Similar biphasic effect of Bryostatin was confirmed for Aβ42 also, measured again in NT2 stable cells by ELISA (cat # KHB3441, Life Technologies, Grand Island, N.Y., USA). Consistent with sAPPα, THPI-244 decreased Aβ42 levels dose-dependently starting from 50 nM (28%, p<0.05) to 2000 nM (64%, p<0.001) (n=4 independent experiments) (FIG. 1.7). Thus THPI-244 increased non-amyloidogenic processing of APP in NT2 cells.

[2] = test system: Aβ42 levels, NT2 cells stably expressing APP751; test: Aβ42 ELISA, NT2 stable cells; format: cell-based, human; conditions: ELISA
Description: as §1

[3] = test system: sAPPα release, fibroblasts derived from AD patients; test: sAPPα ELISA, AD fibroblasts; format: cell-based, human; conditions: 24 h
Description: (1). […] Therefore, we first used fibroblasts derived from AD patients (AG06263C, Coriell Cell repository, supported by NINDS/NIH) and exposed to THPI-244 for 24 h and measured sAPPα release by ELISA as done above for NT2 cells. […] We also confirmed dose-dependent effect of THPI-244 on sAPPα levels in human primary neurons transiently transfected with APP751 with Swedish mutation which is trafficked differently from WT APP and releases more sAPPα. Human neurons were grown on specially coated glass coverslips (cat # GG-18-PDL, NeuVitro, Germany). We could reproducibly achieve nearly 30% transfection efficiency using a nanoparticle based transfection reagent called Neuromag (cat # NM150299, OZ Biosciences, France).

[4] = test system: 7WD10 (CHO) cells stably expressing APP751; test: SAHA treatment, APP fragments in 7WD10 (CHO) cells; format: cell-based; conditions: SAHA application
Description: (§2) Western blot sAPPα release assay. 7WD10 cells were grown in 6-well plates and treated with test compounds and SAHA (vorinostat) at several concentrations in duplicate wells. After 24 h of drug exposure, the conditioned media (CM) was collected, centrifuged to remove cell debris and subjected to SDS-PAGE electrophoresis. sAPPα (6E10, mouse IgG from IBL America ltd) was detected using indicated antibody. To detect APP-FL holoprotein and C-terminal fragments (CTFs, CT15 antibody), the cells were lysed using lysis buffer (1% NP40) with complete protease inhibitor mix (Sigma) supplemented with sodium vanadate and microcystine. Samples were subjected to SDS-PAGE, transferred and immunoblotted with indicated antibodies and detected by enhanced chemiluminescence method. Quantification of Western blot signals was done using ImageJ software.
(§3) We utilized a commercially available AlphaLISA detection kit to develop an HTS assay for identification of compounds that increase sAPPα production in CHO cells stably expressing APP751 (7WD10 cells) (FIG. 2.1B). There are several cell lines that have been used extensively in Alzheimer's disease research. For example, NT2 cells are highly used in AD basic and drug discovery research because they are derived from a human embryonal carcinoma cell line and they can be differentiated into post-mitotic neuron-like cells that develop functional dendrites and axons resembling primary neurons of the human brain [39]. NT2 cells also synthesize amyloid precursor protein important in Alzheimer's disease. However, the rate of growth of NT2 cells is much slower than rate of growth of 7WD10s cells, which makes them less HTS-amenable. We have analyzed both 7WD10 and NT2 cells for expression of the hallmark proteins of Alzheimer's disease: soluble APPα, soluble APPβ, Aβ, and membrane-bound full length APP (APP-FL). […] Since it was shown that broad HDAC inhibition results in a decrease of Aβ and an increase of soluble APPα [41] we tested both cell lines for the effect of application of SAHA (suberoylanilide hydroxamic acid or vorinostat), a pan-HDAC inhibitor [42].

[5] = test system: NT2 cells stably expressing APP751; test: SAHA treatment, APP fragments in NT2 cells; format: cell-based, human; conditions: SAHA application
Excerpt: as §3

[6] = test system: sAPPα release from 7WD10 cells; test: AlphaLISA sAPPα release assay (pilot screen); format: cell-based
Description: Pilot screen of AlphaLISA sAPPα release assay. 8 μL of assay media (DMEM supplemented with 10% FBS and 1× Penicillin/Streptomycin) containing 20,000 cells were added to all wells of the assay plate, except column 1 where only media was added. Plates were incubated for 4 h at 37° C., 5% CO2, 95% RH after which 80 nL of test compounds in DMSO or DMSO alone were added to respective wells using a pin tool device (VP Scientific, San Diego). After 24 h of incubation at 37° C., 5% CO2, 95% RH, sAPPα AlphaLISA beads were added in 10 μL of buffer, equilibrated for 1 h, and AlphaLISA signal was measured using a Biotek H4 Synergy microplate reader (Biotek Inc). Three parameters were calculated on a per-plate basis: (a) the signal-to-background ratio (S/B); (b) the coefficient for variation [CV; CV=(standard deviation/mean)×100)] for all compound test wells; and (c) the Z′-factor [31]. Nominally active compounds from the pilot screen were determined using mean plus 3 times the standard deviation (Mean+3SD) was used as the cut-off.

[7] = test system: sAPPα in supernatants of 7WD10 cells; test: Western blot sAPPα release assay, 7WD10 cells; format: cell-based; conditions: as low as 10 nM, 7WD10 supernatants
Description: (2). To ascertain that hits identified as a result of AlphaLISA assay are not due to artifacts of the detection system, the sAPPα levels were measured by Western blots as a secondary assay downstream of primary HTS to confirm hits or discard artifacts of the AlphaLISA assay. The assay was performed using a range of concentrations of hit compounds (10-5,000 nM). A hit compound named thiazole piperazine #244 (THPI-244) and THPI-326 induced dose-dependent increase of sAPPα in supernatants of 7WD10 cells (FIG. 1.3). […] Since compound THPI-244 increased sAPPα levels more than THPI-326, we focused on THPI-244 for further validation.
as §2

sAPPα = sAPPα increasing activity of THPI-244 analogs; format: cell-based
Excerpt: (§4) The following table illustrates Chemical structures and properties of THPI-244 analogs selected out of 37 analogs, and each have significant sAPPα increasing activity. Toxicity is the minimum dose for toxicity.

TrkA = TrkA increase by THPI-244 analogs; format: cell-based
Excerpt: as §4

BBB of THPI-244 analogs = test: BBB of THPI-244 analogs
Excerpt: as §4

7WD10 cells = test: CellTiter-Glo cell viability assay; format: cell-based; conditions: for viability: 100 μM
Description: Cell viability assay. 7WD10 cells were plated in 384-well plates in 8 μL of media. Plates were incubated for 4 and 24 h at 37° C., 5% CO2 and 95% RH. After incubation, 8 μL of CellTiter-Glo® (Promega cat#: G7570) were added to each well, and incubated for 15 min at room temperature. Luminescence was recorded using a Biotek Synergy H4 microplate reader. Viability is expressed as a % relative to wells containing media only (0%) and wells containing cells (100%).
In the absence of known pharmacological agents capable of inducing an increase of sAPPα release, we tested a small molecule (FIG. 2.4A insert, compound 1 in [2]) shown to decrease Aβ release. It was shown that decrease of Aβ release could be accompanied by the increase of soluble APPα, which has a neuroprotective effect. Compound 1 was tested using 20,000 cells/well in the range of 1.2-100 μM using 3-fold serial dilutions and 24 h incubation as an assay endpoint. Increase of sAPPα release was observed only in wells where 100 μM of compound 1 was added either with or without FBS (FIG. 2.4A). Viability of cells was also tested in the presence of 1.2-100 μM of compound 1 to ascertain that the increase of sAPPα release is not due to excessive cell death. Consistent with the above described results, cells were less viable in the absence of FBS. In the presence of 1.2-33 μM of compound 1, cells were approximately 10% less viable than untreated control either with or without FBS (FIG. 2.4B).

[8] = test system: sAPPα in conditioned medium of 7WD10 cells; test: sAPPα release ELISA, 7WD10 cells; format: cell-based; conditions: 24 h
Description: Starting from p-methylbenzhydrylamine hydrochloride (MBHA.HCl) resin; we developed different approaches toward the diversity oriented solid-phase parallel synthesis of different aminothiazole compounds 1-6 (Scheme 1) (Micheals, H A et al., 2014, ACS Comb. Sci. 16, 1-4; Nefzi, A et al., 2010, J. Org. Chem. 75, 7939-7941). 575 thiazole compounds were synthesized and were tested for sAPPα increasing activity using CHO cells stably expressing APP751 wt. For initial screenings we used a cell-based human sAPPα ELISA kit (cat#27734, IBL Co., ltd, Japan) following instructions from the manufacturer. The method involves sandwich ELISA and use of two specific antibodies and tetra methyl benzidine as a coloring agent. […]
sAPPα and Aβ40 release ELISA assay. […] The principle of the method is based on the use of tetra methyl benzidine (TMB) as a chromogen and the strength of the generated color is proportional to the quantities of human sAPPα. […] Plates were incubated with chromogen solution for 30 minutes, and read at 450 nm after adding stop solution. Levels of Aβ40 in the CM treated with different concentrations of compound 1 as detailed above were measured by sandwich ELISA exactly as described previously. Aβ40 was captured with Ab9 antibody (epitope, 1-16 of Aβ40) and detected with horseradish peroxidase-conjugated Ab13.1.1 antibody (epitope, 35-40 of Aβ40).

[9] = test system: Aβ40 in conditioned medium of 7WD10 cells; test: Aβ40 release ELISA, 7WD10 cells; format: cell-based
Excerpt: sAPPα and Aβ40 release ELISA assay. 7WD10 cells stably expressing APP751 were used for the detection of sAPPα in the conditioned medium (CM). For the detection of sAPPα, human sAPPα assay kit from IBL (Immuno-Biological Laboratories Co., Ltd, cat #27734) was used. The kit is a solid phase sandwich ELISA using two different antibodies. The principle of the method is based on the use of tetra methyl benzidine (TMB) as a chromogen and the strength of the generated color is proportional to the quantities of human sAPPα. Briefly, cells were grown in 6-well plates and treated with compound 1 at 0, 50, 75, 100, 125 and 150 μM final concentrations. After 24 hours of compound exposure, the CM was collected, centrifuged to remove cell debris and used in the assay. 100 μL of EIA buffer was used as blank. The 100 μL of test samples were put in to each well and incubated the precoated plate overnight at […] covered with plate lid. After overnight incubation, wells were vigorously washed with wash buffer several times. Then 100 μL of labeled antibody was added, incubated at 40 C for 30 minutes and washed again several times. Plates were incubated with chromogen solution for 30 minutes, and read at 450 nm after adding stop solution. Levels of Aβ40 in the CM treated with different concentrations of compound 1 as detailed above were measured by sandwich ELISA exactly as described previously. Aβ40 was captured with Ab9 antibody (epitope, 1-16 of Aβ40) and detected with horseradish peroxidase-conjugated Ab13.1.1 antibody (epitope, 35-40 of Aβ40).

CCC/C=C/C=C/C(=O)O[C@H]1/C(=C/C(=O)OC)C[C@H]2C[C@H]([C@@H](C)O)OC(=O)C[C@H](O)C[C@@H]3C[C@H](OC(C)=O)C(C)(C)[C@](O)(C[C@@H]4C/C(=C/C(=O)OC)C[C@H](/C=C/C(C)(C)[C@]1(O)O2)O4)O3 [Bryostatin, reference compound]
concentration from which sAPPα increase is significant [1]: 10 nM | effect on sAPPα release [1]: increased sAPPα at low nM concentrations, but then decreased levels dose-dependently | concentration from which Aβ42 decrease is significant [2]: 10 nM | concentration from which sAPPα increase is significant [3]: 10 nM

O=C(CCCCCCC(=O)Nc1ccccc1)NO [SAHA, suberoylanilide hydroxamic acid]
Aβ [4]: decrease | levels of APP-FL [4]: not affected | sAPPβ [4]: decrease | Aβ [5]: decrease | levels of APP-FL [5]: not affected | sAPPβ [5]: decrease

CCC(C)C(=O)N1CCN(Cc2csc(NC[C@H](Cc3ccc(O)cc3)NC(=O)Cc3ccccc3)n2)CC1 (stereo partly shown) [THPI-326]
increase of Alpha signal (sAPPα release) ([6]; 5 μM, 7WD10 cells, 24 h): ~2 fold | increase of sAPPα over untreated control cells [7]: 2 fold

Cc1cnc(C(=O)N[C@H](CNc2nc(CN3CCNCC3)cs2)c2ccccc2)cn1 [TPI-2336-55]
% sAPPα ↑ (sAPPα): 217% | % TrkA ↑ (TrkA): 69% | % BBB (BBB of THPI-244 analogs): 1.0%

c1ccc(CCNc2nc(CN3CCOCC3)cs2)cc1 [TPI-2336-99]
% sAPPα ↑ (sAPPα): 160% | % TrkA ↑ (TrkA): 51% | % BBB (BBB of THPI-244 analogs): 5.6%

c1ccc(CCNc2nc(CN3CCCCC3)cs2)cc1 [TPI-2336-100]
% sAPPα ↑ (sAPPα): 166% | % TrkA ↑ (TrkA): 54% | % BBB (BBB of THPI-244 analogs): 5.9%

O=C(NCCSCc1cccc(Cl)c1)c1c(Cl)cccc1Cl [compound 1, 2,6-dichloro-N-{2-[(3-chlorobenzyl)thio]ethyl}benzamide]
increase of AlphaLISA signal ([6]; 100 μM compound 1, assay development and pilot screen): 2 fold | concentration at which increase of sAPPα release was observed ([6]; tested 1.2-100 μM, 20,000 cells/well, 24 h, with or without FBS): 100 µM | viability (7WD10 cells; with FBS): ~70% | viability (7WD10 cells; without FBS): ~40% | loss of viability versus untreated control (7WD10 cells; 1.2-33 μM, with or without FBS): approximately 10% | increase of sAPPα over untreated control cells ([8]; 100 μM): 2 fold | maximal effect, increase of sAPPα ([8]; 150 μM): 3 fold | decrease of Aβ40 supernatant levels ([9]; 100 μM): 24% | decrease of Aβ40 supernatant levels ([9]; 125 μM): 43% | decrease of Aβ40 supernatant levels ([9]; 150 μM): 49%
